Measurements as given in paper PMC12291851, “Hydrogen Sulfide (H2S)-Donating Formyl Peptide Receptor 2 (FPR2) Agonists: Design, Synthesis, and Biological Evaluation in Primary Mouse Microglia Culture” (Antioxidants, 2025).

What was measured:
IL-10 = IL-10 ELISA in medium of microglial cultures; type: cell-based, mouse; details: 1 μM pretreatment 1 h, then LPS 0.1 μg/mL 24 h
Experimental: (§1) Primary microglial cell cultures were derived from the cortices of 1–2-day-old mouse pups (1pup/1 brain/1 flask). After decapitation, the brains were extracted and immediately placed in cold Hanks’ Balanced Salt Solution (HBSS, Gibco, New York, NY, USA) on ice. The brains were washed at least three times with 7 mL of HBSS and then transferred to 10 mL of fresh culture media consisting of Dulbecco’s Modified Eagle Medium (DMEM) with GlutaMax and high glucose (4.5 g/L) (Gibco, New York, NY, USA) on ice. The tissue was minced and incubated in HBSS containing glucose, bovine serum albumin (BSA; Sigma-Aldrich, St. Louis, MO, USA), and HEPES (Gibco, New York, NY, USA) with 0.025% trypsin at 37 °C for 20 min. […] The purity of microglial cell cultures was assessed as we have shown previously. […]
To assess the effect of test compounds on IL-18, IL-6, and IL-10 levels, the medium of microglial cell cultures was collected 24 h after LPS treatment. The protein levels of the cytokines IL-18 (Mouse interleukin 18 ELISA kit), IL-6 (Mouse interleukin 6 ELISA kit), and IL-10 (Mouse interleukin 10 ELISA kit; all obtained from FineTest, Wuhan, China) were measured using commercially available enzyme-linked immunosorbent assay kits according to the manufacturer’s instructions. […]

[1] = tested on: mouse primary microglial cells; assay: LDH release assay in primary microglial cells; type: cell-based; details: 1 μM pretreatment 1 h, then LPS 0.1 μg/mL 24 h
Experimental: as §1, with “min. The trypsinization was halted by adding DMEM with GlutaMax and high glucose (4.5 g/L) supplemented with 10% heat-inactivated fetal bovine serum (FBS, Gibco, New York, NY, USA).” for “min.”
LDH release was measured as previously described by as an estimation of cell damage 24 h after LPS treatment. […] Absorbance was measured at 540 nm using an Infinite M200PRO microplate reader (TECAN, Männedorf, Switzerland). The results were normalized to the LDH activity released from vehicle-treated cells (considered as 100%) and expressed as a percentage of the control ± SD.

[2] = Cell-free MTT-based H2S release assay; type: physicochemical; details: 24 h incubation in MEM with 10% DMSO
Experimental: Solutions at different concentrations of each compound in 100 µL of serum-free MEM/10% DMSO with 0.5 mg/mL 3-(4,5-dimethylthiazol-2yl)-2,5-diphenyltetrazolium bromide (MTT) were incubated for 5 h or 24 h in a humidified incubator at 37 °C in 5% CO2 atmosphere. The experimental design comprised blank wells containing only medium and MTT, and a H2S calibration curve obtained by incubating nine solutions at decreasing concentrations (100 µM to 0.01 µM) of NaHS in medium and MTT. At the end of incubation time, the supernatant was removed, the […] crystals were dissolved in 100 µL DMSO/EtOH (1:1 v/v), and absorbance values were read using a Victor 3 plate reader (PerkinElmer, Shelton, CT, USA) at 570 nm. H2S values are expressed as mean ± S.E.M. of the results of three independent experiments conducted in triplicate, and were plotted using GraphPad Prism 7.
To decipher such results and considering the redox properties of H2S, we questioned if H2S released by our compounds in the culture media could interfere with the conversion of MTT (3-[4,5-dimethylthiazol-2-yl]-2,5-diphenyl tetrazolium bromide) to formazan, which is usually related to cell viability. Thus, we ran cell-free experiments in which MTT was used as the substrate to capture the reductive action of H2S. We found, in agreement with Gerő et al., that some of our thioureas and thioamides reduced MTT to formazan after 24 h incubation in MEM with 10% DMSO.

Row | Structure (SMILES) | LPS-induced increase of IL-10 level (IL-10) | LPS-induced cytotoxicity (LDH release) [1] | absorbance signal (MTT reduction to formazan) indicative of H2S release [2]
1 | N#Cc1ccc(C[C@H](NC(=O)Nc2ccc(F)cc2)C(=S)N2CCc3ccccc32)cc1 [7b, (S)-1-[3-(4-Cyanophenyl)-1-(indolin-1-yl)-1-thioxopropan-2-yl]-3-(4-fluorophenyl)urea] | able to counterbalance the LPS-induced increase | effectively mitigated | robust absorbance signal
2 | N#Cc1ccc(C[C@H](NC(=O)Nc2ccc(Br)cc2)C(=S)N2CCc3ccccc32)cc1 [8b, (S)-1-(4-Bromophenyl)-3-[3-(4-cyanophenyl)-1-(indolin-1-yl)-1-thioxopropan-2-yl]urea] | able to counterbalance the LPS-induced increase | effectively mitigated | below the assay’s detection limit
